Data on 14 molecules can be found in ChEMBL document CHEMBL1909046, “DrugMatrix in vitro pharmacology data”.

The target in assay [1] is T1, Angiotensin-converting enzyme (Oryctolagus cuniculus, UniProt P12822).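 Further: enzymatic inhibition of angiotensin-converting enzyme measured with FAPGG as the substrate; in other assays of this panel Not Active means under 50% inhibition at 10 µM.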
T1 sequence (P12822 whole entry): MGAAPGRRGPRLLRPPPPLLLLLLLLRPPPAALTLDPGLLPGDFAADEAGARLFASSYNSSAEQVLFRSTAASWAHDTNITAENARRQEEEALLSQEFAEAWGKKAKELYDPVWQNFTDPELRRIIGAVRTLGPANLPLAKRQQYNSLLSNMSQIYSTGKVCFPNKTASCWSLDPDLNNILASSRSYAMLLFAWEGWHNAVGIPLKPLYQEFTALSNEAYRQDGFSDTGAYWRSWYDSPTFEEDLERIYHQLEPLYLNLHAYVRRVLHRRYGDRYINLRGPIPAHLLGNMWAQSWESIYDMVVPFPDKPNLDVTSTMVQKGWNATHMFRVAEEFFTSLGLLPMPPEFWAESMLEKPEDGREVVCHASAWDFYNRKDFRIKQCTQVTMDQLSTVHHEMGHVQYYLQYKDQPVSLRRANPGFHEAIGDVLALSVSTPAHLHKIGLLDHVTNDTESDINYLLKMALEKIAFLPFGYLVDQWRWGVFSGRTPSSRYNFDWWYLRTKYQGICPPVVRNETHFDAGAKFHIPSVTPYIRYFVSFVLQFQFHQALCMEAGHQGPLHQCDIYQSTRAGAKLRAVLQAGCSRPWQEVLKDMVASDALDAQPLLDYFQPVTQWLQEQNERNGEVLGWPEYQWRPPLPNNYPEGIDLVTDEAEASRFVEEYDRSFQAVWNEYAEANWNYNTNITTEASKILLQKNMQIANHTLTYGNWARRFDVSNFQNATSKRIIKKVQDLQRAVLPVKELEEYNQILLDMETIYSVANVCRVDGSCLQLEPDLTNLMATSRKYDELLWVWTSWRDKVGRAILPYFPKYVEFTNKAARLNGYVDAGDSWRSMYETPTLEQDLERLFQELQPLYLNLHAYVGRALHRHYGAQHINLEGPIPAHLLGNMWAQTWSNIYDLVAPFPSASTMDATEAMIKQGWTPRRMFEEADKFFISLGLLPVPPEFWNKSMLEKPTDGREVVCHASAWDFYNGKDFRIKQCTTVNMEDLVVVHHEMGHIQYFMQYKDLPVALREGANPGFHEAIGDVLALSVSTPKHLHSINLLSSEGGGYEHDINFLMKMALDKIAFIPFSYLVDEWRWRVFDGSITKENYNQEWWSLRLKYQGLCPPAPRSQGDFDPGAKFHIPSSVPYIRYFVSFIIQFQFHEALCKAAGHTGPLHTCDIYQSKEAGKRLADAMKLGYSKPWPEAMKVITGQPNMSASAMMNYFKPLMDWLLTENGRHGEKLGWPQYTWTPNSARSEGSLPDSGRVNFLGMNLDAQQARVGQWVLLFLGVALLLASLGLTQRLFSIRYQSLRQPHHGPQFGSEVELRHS
The assay is classed as tissue-based, Lung.

Assay [2] concerns the target 5-hydroxytryptamine receptor 6 (Homo sapiens, UniProt P50406). The assay is classed as cell membranes, HeLa, Membrane. Further: in other assays of this panel Not Active means under 50% inhibition at 10 µM.
Assay [3] concerns the target T2, Muscarinic acetylcholine receptor M4 (Homo sapiens, UniProt P08173). Further: in other assays of this panel Not Active means under 50% inhibition at 10 µM.
T2 sequence (P08173 whole entry): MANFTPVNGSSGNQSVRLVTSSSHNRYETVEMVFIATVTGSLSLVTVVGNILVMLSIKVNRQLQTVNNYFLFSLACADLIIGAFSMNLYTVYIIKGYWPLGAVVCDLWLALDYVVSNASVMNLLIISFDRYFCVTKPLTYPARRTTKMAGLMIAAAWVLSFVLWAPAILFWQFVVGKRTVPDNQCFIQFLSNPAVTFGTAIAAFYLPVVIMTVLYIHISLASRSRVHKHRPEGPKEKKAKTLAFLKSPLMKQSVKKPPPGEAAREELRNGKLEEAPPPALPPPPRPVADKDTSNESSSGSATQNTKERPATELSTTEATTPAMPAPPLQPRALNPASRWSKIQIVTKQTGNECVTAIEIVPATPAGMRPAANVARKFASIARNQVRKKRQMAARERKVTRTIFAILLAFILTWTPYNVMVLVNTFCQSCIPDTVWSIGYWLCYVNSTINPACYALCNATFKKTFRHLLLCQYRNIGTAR
The assay is classed as cell membranes, CHO-K1, Membrane. Conditions: cho-k1.

The target of another assay is Carbonic anhydrase 2 (Homo sapiens, UniProt P00918). Description: DRUGMATRIX: Carbonic Anhydrase II enzyme inhibition (substrate: 4-Nitrophenyl acetate (4-NPA)). The assay is classed as tissue-based, Erythrocyte. The following applies: erythrocyte; Not Active = under 50% inhibition at 10 µM.
Assay [4] is described as follows: DRUGMATRIX: GABAA, Muscimol, Central radioligand binding (ligand: [3H] Muscimol). The assay is classed as cell membranes, Rattus norvegicus, Wistar, Brain, Membrane. Conditions: Not Active = under 50% inhibition at 10 µM.
Assay [5] is described as follows: DRUGMATRIX: Serotonin (5-Hydroxytryptamine) 5-HT3 radioligand binding (ligand: [3H] GR-65630). The assay is classed as cell membranes, Membrane. The following applies: hek293; Not Active = under 50% inhibition at 10 µM.
Assay [6] concerns the target T3, Vasoactive intestinal polypeptide receptor 1 (Homo sapiens, UniProt P32241). Further: in other assays of this panel Not Active means under 50% inhibition at 10 µM.
T3 sequence (P32241 whole entry): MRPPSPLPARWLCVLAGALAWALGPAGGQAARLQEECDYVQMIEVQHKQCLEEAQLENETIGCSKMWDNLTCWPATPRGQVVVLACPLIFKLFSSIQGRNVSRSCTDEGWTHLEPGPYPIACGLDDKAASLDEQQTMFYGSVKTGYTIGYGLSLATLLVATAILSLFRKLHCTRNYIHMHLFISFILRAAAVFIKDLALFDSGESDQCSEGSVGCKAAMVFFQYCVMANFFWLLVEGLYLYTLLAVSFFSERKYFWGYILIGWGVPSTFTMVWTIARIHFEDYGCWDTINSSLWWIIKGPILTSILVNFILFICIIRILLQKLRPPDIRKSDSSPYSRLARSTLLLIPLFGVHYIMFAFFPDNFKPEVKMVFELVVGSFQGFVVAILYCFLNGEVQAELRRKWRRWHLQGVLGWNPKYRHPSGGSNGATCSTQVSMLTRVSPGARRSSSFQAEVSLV
The assay is classed as cell membranes, Membrane. The following applies: ht-29.

Chain of 5-hydroxytryptamine receptor 6 (P50406 whole entry): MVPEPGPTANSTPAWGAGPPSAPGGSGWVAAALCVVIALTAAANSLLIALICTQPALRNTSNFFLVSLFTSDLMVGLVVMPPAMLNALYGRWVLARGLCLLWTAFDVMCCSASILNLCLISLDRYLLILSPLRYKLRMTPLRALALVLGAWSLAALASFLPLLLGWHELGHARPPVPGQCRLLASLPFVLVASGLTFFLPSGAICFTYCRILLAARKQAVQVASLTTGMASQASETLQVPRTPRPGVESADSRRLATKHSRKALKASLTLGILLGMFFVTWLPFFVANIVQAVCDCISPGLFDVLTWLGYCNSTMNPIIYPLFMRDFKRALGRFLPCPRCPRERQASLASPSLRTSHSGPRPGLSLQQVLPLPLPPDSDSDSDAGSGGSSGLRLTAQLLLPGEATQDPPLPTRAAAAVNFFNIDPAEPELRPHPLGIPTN

Take `CC1(C)S[C@@H]2[C@H](NC(=O)Cc3ccccc3)C(=O)N2[C@H]1C(=O)O` [PENICILLIN G]: the IC50 result (in assay [1]; in assay [2] (hela); in assay [3]; on Carbonic anhydrase 2; in assay [4]; in assay [5]) was “Not Active” in each case. In addition, in assay [6], the IC50 entry is reported as “Not Active”. For the same molecule, the Ki result in assay [4] and in assay [5] was “Not Active” throughout.
For the molecule `CCCCc1nc(Cl)c(CO)n1Cc1ccc(-c2ccccc2-c2nnn[nH]2)cc1` [LOSARTAN], the IC50 entry (in assay [1]; in assay [2] (hela); in assay [3]; at Carbonic anhydrase 2; in assay [4]; in assay [5]) was “Not Active” in each case. Besides, the half-inhibitory concentration (IC50) result in assay [6] is listed as “Not Active”. For the same molecule, the Ki entry in assay [4] and in assay [5] was “Not Active” throughout.
As for `COc1cc2nc(N3CCN(C(=O)C4COc5ccccc5O4)CC3)nc(N)c2cc1OC` (configuration not stated) [DOXAZOSIN], the IC50 entry (in assay [1]; in assay [2] (hela); in assay [3]; against Carbonic anhydrase 2; in assay [4]; in assay [5]) was “Not Active” each time. Also, the IC50 entry in assay [6] was “Not Active”. Also, the Ki result in assay [4] and in assay [5] was “Not Active” throughout.
As to `CCCCN1CCCC[C@H]1C(=O)Nc1c(C)cccc1C` [LEVOBUPIVACAINE], the IC50 result (in assay [1]; in assay [2] (hela); in assay [3]; at Carbonic anhydrase 2; in assay [4]; in assay [5]) was “Not Active” each time. The IC50 entry in assay [6] was “Not Active”. Also, the Ki result in assay [4] and in assay [5] was “Not Active” throughout.
On to `Cc1onc(O)c1CC(N)C(=O)O` (racemic) [(R,S)-AMPA], for which the IC50 entry (in assay [1]; in assay [2] (hela); in assay [3]; against Carbonic anhydrase 2; in assay [4]; in assay [5]) was “Not Active” in each case. The IC50 result in assay [6] is given as “Not Active”. Further, the Ki entry in assay [4] and in assay [5] was “Not Active” throughout.
`CC1CC(OC(=O)C(O)c2ccccc2)CC(C)(C)C1` (configuration not stated) [CYCLANDELATE]: the IC50 entry (in assay [1]; in assay [2] (hela); in assay [3]; against Carbonic anhydrase 2; in assay [4]; in assay [5]) was “Not Active” throughout. The 50% inhibitory concentration (IC50) result in assay [6] is recorded as “Not Active”. The inhibitory constant (Ki) result in assay [4] and in assay [5] was “Not Active” throughout.
Consider `COCCc1ccc(OCC(O)CNC(C)C)cc1` (configuration not stated) [METOPROLOL], for which the IC50 entry (in assay [1]; in assay [2] (hela); in assay [3]; at Carbonic anhydrase 2; in assay [4]; in assay [5]) was “Not Active” each time. Also, in assay [6], the IC50 entry is listed as “Not Active”. Besides, the Ki entry in assay [4] and in assay [5] was “Not Active” in each case.
With `c1ccc(Nc2ccc(Nc3ccccc3)cc2)cc1`, the IC50 result (in assay [1]; in assay [2] (hela); in assay [3]; against Carbonic anhydrase 2; in assay [4]; in assay [5]) was “Not Active” in each case. For the same molecule, the half-inhibitory concentration (IC50) result in assay [6] is “Not Active”. Besides, the Ki result in assay [4] and in assay [5] was “Not Active” in each case.
Consider `Cc1onc(-c2ccccc2Cl)c1C(=O)N[C@@H]1C(=O)N2[C@@H]1SC(C)(C)[C@@H]2C(=O)O` [CLOXACILLIN], for which the IC50 entry (in assay [1]; in assay [2] (hela); in assay [3]; against Carbonic anhydrase 2; in assay [4]; in assay [5]) was “Not Active” throughout. Moreover, in assay [6], the IC50 result was “Not Active”. Moreover, the Ki result in assay [4] and in assay [5] was “Not Active” each time.
With `CC1=C2C(=CO[C@H](C)[C@H]2C)C(O)=C(C(=O)O)C1=O` [CITRININ], the IC50 result (in assay [1]; in assay [2] (hela); in assay [3]; against Carbonic anhydrase 2; in assay [4]; in assay [5]) was “Not Active” each time. The IC50 result in assay [6] is “Not Active”. Also, the Ki entry in assay [4] and in assay [5] was “Not Active” in each case.
As to `CC(C)C(=O)Nc1ccc([N+](=O)[O-])c(C(F)(F)F)c1` [FLUTAMIDE], the IC50 entry was “Not Active” in assay [1]; 17.8 µM in assay [2] (read-out: IC50); “Not Active” in assay [3]; “Not Active” on Carbonic anhydrase 2; “Not Active” in assay [4]; “Not Active” in assay [5]. Further, the IC50 result in assay [6] is “Not Active”. In addition, the figures for the Ki in assay [2] (read-out: Ki), in assay [4] and in assay [5] were 8.27 µM, “Not Active” and “Not Active”, respectively.
As for `CC[C@@]1(O)C[C@H](O[C@H]2C[C@H](N(C)C)[C@H](O[C@H]3C[C@H](O)[C@H](O[C@H]4CCC(=O)[C@H](C)O4)[C@H](C)O3)[C@H](C)O2)c2c(cc3c(c2O)C(=O)c2c(O)cccc2C3=O)[C@H]1C(=O)OC` [ACLARUBICIN], the IC50 result (in assay [1]; in assay [2] (hela); in assay [3]; at Carbonic anhydrase 2; in assay [4]; in assay [5]) was “Not Active” each time. For the same molecule, the IC50 result in assay [6] is on record as “Not Active”. For the same molecule, the Ki entry in assay [4] and in assay [5] was “Not Active” throughout.
Take `Nc1nc2c(ncn2CCC(CO)CO)c(=O)[nH]1` [PENCICLOVIR]: the IC50 entry (in assay [1]; in assay [2] (hela); in assay [3]; against Carbonic anhydrase 2; in assay [4]; in assay [5]) was “Not Active” throughout. The IC50 result in assay [6] was “Not Active”. Moreover, the Ki entry in assay [4] and in assay [5] was “Not Active” throughout.
As to `O=c1oc2ccccc2c(O)c1Cc1c(O)c2ccccc2oc1=O` [DICUMAROL], the IC50 result (in assay [1]; in assay [2] (hela); in assay [3]; on Carbonic anhydrase 2; in assay [4]; in assay [5]) was “Not Active” each time. The IC50 result in assay [6] was “Not Active”. Moreover, the Ki entry in assay [4] and in assay [5] was “Not Active” in each case.
